Test results taken from publication PMC10872270 (Cell reports, 2023).

Key:
[1] = system: patients expressing AR-V7; conditions: clinical trial; alone or in combination with PI3K inhibitor taselisib; cited from earlier work
[2] = system: AR-target genes FKBP5, STEAP4, and TMPRSS2; test: AR-target gene expression by real-time PCR in MDA-MB-453 cells; assay type: cell-based; conditions: 16–20 hours
MDA-MB-453 tumors = test: RNA-seq of MDA-MB-453 xenograft tumors; assay type: in vivo, mice; conditions: MDA-MB-453 xenograft tumors vs vehicle
UT-1355 PDX = test: UT-1355 TNBC PDX orthotopic xenograft; assay type: in vivo; conditions: female NSG mice; expresses AR-FL and AR-V7
MDA-MB-453 xenograft = conditions: female mice supplemented with DHT; cited from earlier work
MDA-MB-453 cells = test: SRB proliferation assay in growth medium; assay type: cell-based; conditions: parental MDA-MB-453 cells, seven days
MDA-MB-453-AR-V7 cells = test: SRB proliferation assay in growth medium; assay type: cell-based; conditions: seven days
AR = target: T1, AR (Homo sapiens, UniProt P10275); conditions: HEK-293 cells
T1 sequence (P10275 1-920): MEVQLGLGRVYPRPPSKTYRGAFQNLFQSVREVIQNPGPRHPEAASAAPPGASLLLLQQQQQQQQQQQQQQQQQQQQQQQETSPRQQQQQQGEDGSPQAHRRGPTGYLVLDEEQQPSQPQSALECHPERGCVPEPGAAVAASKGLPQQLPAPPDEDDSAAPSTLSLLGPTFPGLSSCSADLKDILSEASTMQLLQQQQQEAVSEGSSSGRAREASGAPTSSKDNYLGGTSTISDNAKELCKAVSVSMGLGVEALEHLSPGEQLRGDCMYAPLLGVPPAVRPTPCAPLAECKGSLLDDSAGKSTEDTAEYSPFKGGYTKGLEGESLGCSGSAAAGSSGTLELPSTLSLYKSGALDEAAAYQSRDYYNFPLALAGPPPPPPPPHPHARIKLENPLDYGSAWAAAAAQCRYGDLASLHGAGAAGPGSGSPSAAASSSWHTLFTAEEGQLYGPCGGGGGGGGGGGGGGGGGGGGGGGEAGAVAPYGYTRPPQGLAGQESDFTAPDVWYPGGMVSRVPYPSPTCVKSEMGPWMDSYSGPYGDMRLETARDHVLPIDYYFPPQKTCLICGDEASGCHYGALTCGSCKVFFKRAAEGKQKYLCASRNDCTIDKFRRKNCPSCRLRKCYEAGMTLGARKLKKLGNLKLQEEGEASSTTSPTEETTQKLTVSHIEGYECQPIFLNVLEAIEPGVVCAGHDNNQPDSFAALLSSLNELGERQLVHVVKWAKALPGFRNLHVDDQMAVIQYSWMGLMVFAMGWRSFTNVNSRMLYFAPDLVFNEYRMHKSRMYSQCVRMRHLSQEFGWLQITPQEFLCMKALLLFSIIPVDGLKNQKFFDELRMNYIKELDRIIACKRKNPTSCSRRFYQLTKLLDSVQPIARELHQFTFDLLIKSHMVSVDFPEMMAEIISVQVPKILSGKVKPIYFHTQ

STAT1 phosphorylation = test: Interferon α-induced STAT1 phosphorylation in MDA-MB-453 cells; assay type: cell-based; conditions: 3 μM pretreated for 24 hours, interferon α 30 minutes
FKBP5 = test: R1881-induced FKBP5 expression in MDA-MB-453 cells; conditions: 0.1 nM R1881, 3 μM, 24 hours

R1881-dependent AR transactivation in the absence of STAT1 (AR) | STAT1-dependent increase in AR transactivation (AR; 0.1 μg STAT1) | Structure (SMILES) | effect in patients expressing AR-V7 [1] | R1881-stimulated expression of FKBP5 [2] | R1881-stimulated expression of STEAP4 [2] | R1881-stimulated expression of TMPRSS2 [2] | differentially expressed genes in treated tumors (MDA-MB-453 tumors) | growth of UT-1355 PDX (UT-1355 PDX) | MDA-MB-453 xenograft growth (MDA-MB-453 xenograft) | cell proliferation (MDA-MB-453 cells) | cell proliferation (MDA-MB-453-AR-V7 cells) | interferon-α-induced phosphorylation of STAT1 (STAT1 phosphorylation) | R1881-induced expression of FKBP5 (FKBP5)
 |  | CNC(=O)c1ccc(N2C(=S)N(c3ccc(C#N)c(C(F)(F)F)c3)C(=O)C2(C)C)cc1F [enzalutamide] | failed to have an effect | inhibited | inhibited | inhibited | eight | modestly effective | inhibits |  |  |  | 
no effect | inhibited | N#CC[C@H](C1CCCC1)n1cc(-c2ncnc3[nH]ccc23)cn1 [ruxolitinib] |  |  |  |  |  |  |  | comparable inhibition | comparable inhibition | completely inhibited | completely inhibited
